Literature values, collected in patent publication US20160052846A1, “METHOD OF DEMULSIFYING AND PURIFYING ORGANIC PRODUCTS FROM AN EMULSION” (CODEXIS, INC., priority 2012, published 2016).
Where two headings read alike, the source gives them in different places.

Settings: for Water sol: in words, no temperature

Compound: CCCC(C)O (centres unmarked) [2-pentanol, pentan-2-ol]
- Water sol (g per 100 g) (at 20° C.): 4 at 20 °C g per 100 g

Compound: CCCCCO [Amyl alcohol, pentan-1-ol]
- Water sol (g per 100 g) (at 22° C.): 2.7 at 22 °C g per 100 g

Compound: CC(C)CO [Isobutanol, 2-methylpropan-1-ol]
- Water sol (g per 100 g) (at 15° C.): 10 at 15 °C g per 100 g

Compound: CC(C)CCO [Isopentanol, 3-methylbutan-1-ol]
- Water sol (g per 100 g) (at 14° C.): 2 at 14 °C g per 100 g

Compound: CC(C)O [Isopropanol, propan-2-ol]
- Water sol: soluble

Compound: CC(C)(C)CO [Neopentyl alcohol, 2,2-dimethylpropan-1-ol]
- Water sol: Slightly soluble

Compound: CC(C)C(C)O (centres unmarked) [Sec iso amyl alcohol, 3-methylbutan-2-ol]
- Water sol: Slightly soluble

Compound: propan-1-ol [Propanol]
- Water sol: soluble
